Source: patent US10040791B2, “Isoxazole derivative as mutant isocitrate dehydrogenase 1 inhibitor” (Daiichi Sankyo Company, Limited, priority 2014, dated 2018)

How the values were obtained:
IDH1R132C = IDH1R132C (Homo sapiens (Human), UniProt O75874, R132C); assay: Inhibitory activity against IDH1R132C enzyme (NADPH detection, WST-8); type: biochemical; settings: 10 nM, residual NADPH detected with WST-8, read-out: Test Example 1 IDH1 R132C IC50
Method: After transformation of Rosetta 2 (DE3) E. coli, the expression of the protein was induced with IPTG.
While NADPH-derived fluorescence was occasionally monitored, the reaction was terminated by the addition of 5 μL of 0.5 M EDTA before consumption of NADPH. 5 μL of WST-8 reagent (Dojindo Laboratories, #CK04) was further added and mixed therewith. 15 minutes later, the absorbance at 450 nm was measured using a plate reader (PerkinElmer, Inc., EnVision). The observed absorbance value reflects the amount of residual NADPH. From the absorbance data, the enzyme inhibitory activity of each compound at each concentration was calculated and analyzed using medical statistical analysis software GraphPad Prism to calculate an IC50 value.

[1] = test system: HT-1080 cells expressing IDH1R132C; assay: 2-HG production inhibitory activity using HT1080 cell; type: cell-based, human; settings: Homo sapiens, HT-1080; 2-HG production, HT1080 cells; read-out: Test Example 3 IC50
Method: Then, 100 μL of growth medium B was added to each well, further 25 μL of a solution of each compound diluted to a predetermined concentration with growth medium B was added to each well, and the cells were incubated at 37° C. for 2 days under 5% CO2. […] Then, 150 μL of ultrapure water was further added to each well, and the mixture was stirred by pipetting and stored at −20° C.
The preserved solutions were thawed at room temperature.

IDH1R132C, sequence (O75874 whole entry R132C): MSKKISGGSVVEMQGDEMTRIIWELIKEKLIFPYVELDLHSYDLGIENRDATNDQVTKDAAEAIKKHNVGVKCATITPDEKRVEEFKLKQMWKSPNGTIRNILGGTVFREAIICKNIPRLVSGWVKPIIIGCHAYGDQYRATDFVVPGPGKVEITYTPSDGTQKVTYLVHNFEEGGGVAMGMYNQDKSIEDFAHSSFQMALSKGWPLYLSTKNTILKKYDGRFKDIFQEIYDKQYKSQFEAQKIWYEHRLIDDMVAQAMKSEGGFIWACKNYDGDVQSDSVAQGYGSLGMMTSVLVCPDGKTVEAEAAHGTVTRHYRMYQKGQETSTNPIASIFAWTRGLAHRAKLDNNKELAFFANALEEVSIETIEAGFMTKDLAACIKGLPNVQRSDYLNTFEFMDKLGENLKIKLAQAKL

Structure (SMILES) | IC50 (IDH1R132C) [nM] | IC50 [1] [nM]
COCC1(c2onc(-c3c(Cl)cc(Cl)cc3Cl)c2C(=O)n2cc(C)c3c(/C=C/C(=O)O)cccc32)CCC1 [Example 80, (2E)-3-(1-{[5-[1-(Methoxymethyl)cyclobutyl]-3-(2,4,6-trichlorophenyl)-1,2-oxazol-4-yl]carbonyl}-3-methyl-1H-indol-4-yl)prop-2-enoic acid] | 335 | 99
Cc1cn(C(=O)c2c(-c3c(Cl)cc(Cl)cc3Cl)noc2C2(CN(C)C)CCC2)c2cccc(/C=C/C(=O)O)c12 [Example 88, (2E)-3-(1-{[5-{1-[(Dimethylamino)methyl]cyclobutyl}-3-(2,4,6-trichlorophenyl)-1,2-oxazol-4-yl]carbonyl}-3-methyl-1H-indol-4-yl)prop-2-enoic acid] | 158 | 61
Cc1cn(C(=O)c2c(-c3c(Cl)cc(Cl)cc3Cl)noc2C2(C(=O)N(C)C)CCC2)c2cccc(/C=C/C(=O)O)c12 [Example 89, (2E)-3-(1-{[5-[1-(Dimethylcarbamoyl)cyclobutyl]-3-(2,4,6-trichlorophenyl)-1,2-oxazol-4-yl]carbonyl}-3-methyl-1H-indol-4-yl)prop-2-enoic acid] | 185 | 37
C=CC(=O)N1CCCC(c2onc(-c3c(Cl)cc(Cl)cc3Cl)c2C(=O)n2ccc3c(/C=C/C(=O)O)cccc32)C1 (centres unmarked) [Example 96] | 422 | 290
C=CC(=O)N1CC(OC)(c2onc(-c3c(Cl)cc(Cl)cc3Cl)c2C(=O)n2ccc3c(/C=C/C(=O)O)cccc32)C1 [Example 97] | 164 | 162
C#CC(=O)N1CC(c2onc(-c3c(Cl)cc(Cl)cc3Cl)c2C(=O)n2ccc3c(/C=C/C(=O)O)cccc32)C1 [Example 101] | 189 | 32
C=CC(=O)N1CCC(C)(c2onc(-c3c(Cl)cc(Cl)cc3Cl)c2C(=O)n2ccc3c(/C=C/C(=O)O)cccc32)CC1 [Example 111] | 188 | 10
C=CC(=O)N1CCC(O)(c2onc(-c3c(Cl)cc(Cl)cc3Cl)c2C(=O)n2cc(C)c3c(/C=C/C(=O)O)cccc32)CC1 [Example 123] | 149 | 13
C=CC(=O)N1CC2C(C1)C2c1onc(-c2c(Cl)cc(Cl)cc2Cl)c1C(=O)n1cc(C)c2c(/C=C/C(=O)O)cccc21 (centres unmarked) [Example 124] | 125 | 22
C=CC(=O)N1CCC(c2onc(-c3c(Cl)cc(Cl)cc3Cl)c2C(=O)n2cc(C)c3c(/C=C/C(=O)O)cccc32)(N(C)C)CC1 [Example 126] | 149 | 8
C=CC(=O)N1CCC(c2onc(-c3ccc(Cl)c(F)c3Cl)c2C(=O)n2cc(C)c3c(/C=C/C(=O)O)cccc32)CC1 [Example 129] | 182 | 10
C=CC(=O)N1CCC(c2noc(-c3c(Cl)cc(Cl)cc3Cl)c2C(=O)n2ccc3c(/C=C/C(=O)O)cccc32)CC1 [Example 132, (2E)-3-(1-{[3-(1-Acryloylpiperidin-4-yl)-5-(2,4,6-trichlorophenyl)-1,2-oxazol-4-yl]carbonyl}-1H-indol-4-yl)prop-2-enoic acid] | 279 | 28
CCN(CC)c1onc(-c2c(Cl)cccc2Cl)c1C(=O)n1ccc2c(/C=C/C(=O)O)cccc21 [Example 134, (2E)-3-(1-{[3-(2,6-Dichlorophenyl)-5-(diethylamino)-1,2-oxazol-4-yl]carbonyl}-1H-indol-4-yl)prop-2-enoic acid] | 143 | 347

More lines, in order of falling IC50 (IDH1R132C), values ahead:

IC50 (IDH1R132C) [nM] | IC50 [1] [nM] | Structure (SMILES)
122 | 376 | O=C(O)/C=C/c1cccc2c1ccn2C(=O)c1c(-c2c(Cl)cccc2Cl)noc1N1CCCC1 [Example 135, (2E)-3-(1-{[3-(2,6-Dichlorophenyl)-5-(pyrrolidin-1-yl)-1,2-oxazol-4-yl]carbonyl}-1H-indol-4-yl)prop-2-enoic acid]
120 | 23 | Cc1cn(C(=O)c2c(-c3c(Cl)cc(Cl)cc3Cl)noc2C(C)(C)N(C)C)c2cccc(/C=C/C(=O)O)c12 [Example 91, (2E)-3-[1-({5-[2-(Dimethylamino)propan-2-yl]-3-(2,4,6-trichlorophenyl)-1,2-oxazol-4-yl}carbonyl)-3-methyl-1H-indol-4-yl]prop-2-enoic acid]
117 | 50 | C=CC(=O)N1CCC(c2onc(-c3c(Cl)cccc3Cl)c2C(=O)n2ccc3c(/C=C/C(=O)O)cccc32)CC1 [Example 102]
116 | 34 | C=CC(=O)N1CC(C)(c2onc(-c3c(Cl)cc(Cl)cc3Cl)c2C(=O)n2ccc3c(/C=C/C(=O)O)cccc32)C1 [Example 98]
99 | 9 | CNC(C)(C)c1onc(-c2c(Cl)cc(Cl)cc2Cl)c1C(=O)n1cc2c3c(cccc31)/C(=C/C(=O)O)CC2 [Example 85, (2E)-[1-({5-[2-(Methylamino)propan-2-yl]-3-(2,4,6-trichlorophenyl)-1,2-oxazol-4-yl}carbonyl)-3,4-dihydrobenzo[cd]indol-5(1H)-ylidene]ethanoic acid]
96 | 10 | Cc1cn(C(=O)c2c(-c3c(Cl)cc(Cl)cc3Cl)noc2C2(N(C)C)CC2)c2cccc(/C=C/C(=O)O)c12 [Example 82, (2E)-3-(1-{[5-[1-(Dimethylamino)cyclopropyl]-3-(2,4,6-trichlorophenyl)-1,2-oxazol-4-yl]carbonyl}-3-methyl-1H-indol-4-yl)prop-2-enoic acid]
94 | 428 | CC1(c2onc(-c3c(Cl)cccc3Cl)c2C(=O)n2ccc3c(/C=C/C(=O)O)cccc32)CCO1 (centres unmarked) [Example 77, (2E)-3-(1-{[3-(2,6-Dichlorophenyl)-5-(2-methyloxetan-2-yl)-1,2-oxazol-4-yl]carbonyl}-1H-indol-4-yl)prop-2-enoic acid]
93 | 390 | CN(C)c1onc(-c2c(Cl)cccc2Cl)c1C(=O)n1ccc2c(/C=C/C(=O)O)cccc21 [Example 133, (2E)-3-(1-{[3-(2,6-Dichlorophenyl)-5-(dimethylamino)-1,2-oxazol-4-yl]carbonyl}-1H-indol-4-yl)prop-2-enoic acid]
80 | 15 | CNC(C)(C)c1onc(-c2c(Cl)cc(Cl)cc2Cl)c1C(=O)n1cc(C)c2c(/C=C/C(=O)O)cccc21 [Example 84, (2E)-3-[3-Methyl-1-({5-[2-(methylamino)propan-2-yl]-3-(2,4,6-trichlorophenyl)-1,2-oxazol-4-yl]carbonyl}-1H-indol-4-yl)prop-2-enoic acid]
80 | 9 | CN(C)C1(c2onc(-c3c(Cl)cc(Cl)cc3Cl)c2C(=O)n2cc3c4c(cccc42)/C(=C/C(=O)O)CC3)CC1 [Example 92]
79 | 33 | CNC1(c2onc(-c3c(Cl)cc(Cl)cc3Cl)c2C(=O)n2cc3c4c(cccc42)/C(=C/C(=O)O)CC3)CC1 [Example 86, (2E)-[1-({5-[1-(Methylamino)cyclopropyl]-3-(2,4,6-trichlorophenyl)-1,2-oxazol-4-yl}carbonyl)-3,4-dihydrobenzo[cd]indol-5(1H)-ylidene]ethanoic acid]
59 | 36 | Cc1cn(C(=O)c2c(-c3c(Cl)cc(Cl)cc3Cl)noc2C2(N)CCC2)c2cccc(/C=C/C(=O)O)c12 [Example 90, (2E)-3-(1-{[5-(1-Aminocyclobutyl)-3-(2,4,6-trichlorophenyl)-1,2-oxazol-4-yl]carbonyl}-3-methyl-1H-indol-4-yl)prop-2-enoic acid]
